Assay results published in patent US10508120B2, “TYK2 inhibitors and uses thereof” (Nimbus Lakshmi, Inc., priority 2017, dated 2019).
Like-named read-outs stand apart in the source and are kept apart here.

How the values were obtained:
JAK2 kinase domain (JH1) = JAK2 kinase domain (JH1) (Homo sapiens (Human), UniProt O60674); test: JAK2 Radioactive Kinase Assay; assay type: biochemical; conditions: for inhibition at 10 µM: read-out: JAK2 JH1% Inhibition @ 10 μM
Method: (§1) The Tyk2 and JAK2 radioactive kinase assay measures the percent inhibition at the Tyk2 kinase domain (DH1) and the percent inhibition at the JAK2 kinase domain (JH1). Results of the assay are expressed as percent inhibition at 10 μM.

[1] = molecular target: human TYK2 (JH2domain-pseudokinase) (Homo sapiens (Human), UniProt P29597); test: TYK2 JH2 Domain Binding Assay (KINOMEscan)
Sequence of human TYK2 (JH2domain-pseudokinase) (P29597 556-888): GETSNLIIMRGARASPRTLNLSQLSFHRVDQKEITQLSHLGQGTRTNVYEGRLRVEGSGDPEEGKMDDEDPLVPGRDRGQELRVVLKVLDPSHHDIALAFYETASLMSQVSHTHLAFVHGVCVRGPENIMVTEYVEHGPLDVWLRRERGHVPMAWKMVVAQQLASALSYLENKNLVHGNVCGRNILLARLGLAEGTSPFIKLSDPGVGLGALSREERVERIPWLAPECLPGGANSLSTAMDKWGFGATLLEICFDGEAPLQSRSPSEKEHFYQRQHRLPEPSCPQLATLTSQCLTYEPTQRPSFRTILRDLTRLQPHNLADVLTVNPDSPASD
In short: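 Competition binding of a DNA-tagged fusion of human TYK2 JH2 pseudokinase (G556–D888) with NFkB DNA-binding domain, from HEK293 extracts (<0.1 nM final), against immobilised ligand beads; 1 h shaking at room temperature, 0.9% DMSO. Bound kinase quantified by qPCR.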

Tyk2 kinase domain (DH1) = Tyk2 kinase domain (DH1) (Homo sapiens (Human), UniProt P29597); test: Tyk2 Radioactive Kinase Assay; assay type: biochemical; conditions: for inhibition at 10 µM: read-out: Tyk2 JH1% Inhibition @ 10 μM
Sequence of Tyk2 kinase domain (DH1) (P29597 897-1176): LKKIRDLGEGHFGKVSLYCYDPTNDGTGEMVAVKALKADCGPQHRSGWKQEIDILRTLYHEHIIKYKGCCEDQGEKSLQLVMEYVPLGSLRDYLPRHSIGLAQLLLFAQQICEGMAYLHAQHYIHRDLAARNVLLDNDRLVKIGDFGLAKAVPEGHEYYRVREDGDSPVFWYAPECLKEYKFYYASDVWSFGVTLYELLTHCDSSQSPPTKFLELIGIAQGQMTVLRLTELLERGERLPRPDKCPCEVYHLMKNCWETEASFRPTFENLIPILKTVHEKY
Method: as §1

Sequence of JAK2 kinase domain (JH1) (O60674 849-1124): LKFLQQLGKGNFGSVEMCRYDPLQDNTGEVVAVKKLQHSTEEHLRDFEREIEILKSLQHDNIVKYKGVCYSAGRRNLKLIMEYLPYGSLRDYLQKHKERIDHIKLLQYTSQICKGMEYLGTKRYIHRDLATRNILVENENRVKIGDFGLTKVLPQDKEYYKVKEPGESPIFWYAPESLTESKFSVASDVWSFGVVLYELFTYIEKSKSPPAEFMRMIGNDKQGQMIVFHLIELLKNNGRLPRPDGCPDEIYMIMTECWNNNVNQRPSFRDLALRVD

Compound | inhibition at 10 µM (JAK2 kinase domain (JH1); 10 μM compound, 10 μM ATP) [%] | Kd [1] [pM] | inhibition at 10 µM (Tyk2 kinase domain (DH1); 10 μM compound, 10 μM ATP) [%] | inhibition at 10 µM (JAK2 kinase domain (JH1); compound at 10 μM, ATP 10 μM) [%] | inhibition at 10 µM (Tyk2 kinase domain (DH1); compound at 10 μM, ATP 10 μM) [%] | JAK2 JH1% Inhibition @ 10 μM (JAK2 kinase domain (JH1); 10 μM compound, 10 μM ATP) | Tyk2 JH1% Inhibition @ 10 μM (Tyk2 kinase domain (DH1); 10 μM compound, 10 μM ATP)
CNc1cc(Nc2cccn([C@H]3CCC[C@@H](OC)C3)c2=O)nc2c(C(=O)NCC3(CO)CC3)cnn12 (racemic) [I-862] | < 50 | 200 to 1000 | < 50 | – | – | – | –
Cc1cc(Nc2cc(N)n3ncc(C(N)=O)c3n2)cc(N2CCCC(O)C2)n1 (stereo in doubt) [I-62, (S)-7-amino-5-((2-(3-hydroxypiperidin-1-yl)-6-methylpyridin-4-yl)amino)pyrazolo[1,5-a]pyrimidine-3-carboxamide] | – | > 10000 | – | < 50 | < 50 | – | –
Cc1c(Nc2cccnc2OC(C)C)nc2c(C(=O)N[C@@H]3C[C@@H]3F)cnn2c1N (stereo in doubt) [I-206, 7-amino-N-((1R,2S)-2-fluorocyclopropyl)-5-((2-isopropoxypyridin-3-yl)amino)-6-methylpyrazolo[1,5-a]pyrimidine-3-carboxamide] | – | 1000 to 10000 | – | < 50 | < 50 | – | –
CNc1cc(-c2cn(C(C)C)c3ncc(Cl)cc23)nc2c(C(=O)N[C@@H]3C[C@@H]3F)cnn12 (stereo in doubt) [I-254, 5-(5-chloro-1-isopropyl-1H-pyrrolo[2,3-b]pyridin-3-yl)-N-((1R,2S)-2-fluorocyclopropyl)-7-(methylamino)pyrazolo[1,5-a]pyrimidine-3-carboxamide] | – | 200 to 1000 | – | < 50 | < 50 | – | –
COc1ncccc1Nc1cc(NCCN2CCOCC2)n2ncc(C(=O)N[C@@H]3C[C@@H]3F)c2n1 (stereo in doubt) [I-388, N-((1R,2S)-2-fluorocyclopropyl)-5-((2-methoxypyridin-3-yl)amino)-7-((2-morpholinoethyl)amino)pyrazolo[1,5-a]pyrimidine-3-carboxamide] | – | 200 to 1000 | – | < 50 | < 50 | – | –
CNc1cc(-c2nn(C3CCOCC3)c3ncccc23)nc2c(C(=O)N[C@@H]3C[C@@H]3F)cnn12 (stereo in doubt) [I-450, N-((1R,2S)-2-fluorocyclopropyl)-7-(methylamino)-5-(1-(tetrahydro-2H-pyran-4-yl)-1H-pyrazolo[3,4-b]pyridin-3-yl)pyrazolo[1,5-a]pyrimidine-3-carboxamide] | – | 200 to 1000 | – | < 50 | < 50 | – | –
CNc1cc(Nc2cccn(CCOC3CC3)c2=O)nc2c(C(=O)NC3CC[C@H]3O)cnn12 (stereo in doubt) [I-515, 5-((1-(2-cyclopropoxyethyl)-2-oxo-1,2-dihydropyridin-3-yl)amino)-N-((1R,2R)-2-hydroxycyclobutyl)-7-(methylamino)pyrazolo[1,5-a]pyrimidine-3-carboxamide] | – | 200 to 1000 | – | < 50 | < 50 | – | –
CNc1cc(-c2cn(C(C)C)c3ncccc23)nc2c(C(=O)N[C@@H]3C[C@H]3O)cnn12 (stereo in doubt) [I-653, N-((1R,2R)-2-hydroxycyclopropyl)-5-(1-isopropyl-1H-pyrrolo[2,3-b]pyridin-3-yl)-7-(methylamino)pyrazolo[1,5-a]pyrimidine-3-carboxamide] | – | < 200 | – | < 50 | < 50 | – | –
CNc1cc(Nc2cccn(-c3ccccc3F)c2=O)nc2c(C(=O)N[C@@H]3CC[C@H]3O)cnn12 [I-940] | – | – | – | – | – | A (percent inhibition at 10 μM lower than 50) | A (percent inhibition at 10 μM lower than 50)
CNc1cc(Nc2cccn(-c3cccc(F)c3)c2=O)nc2c(C(=O)N[C@H]3CC[C@H]3O)cnn12 [I-945] | < 50 | – | < 50 | – | – | – | –
CNc1cc(Nc2cccn(C(C)C)c2=O)nc2c(C(=O)N[C@H]3CC[C@H]3O)cnn12 [I-977] | – | – | – | – | – | A (percent inhibition at 10 μM lower than 50) | A (percent inhibition at 10 μM lower than 50)
CNc1cc(Nc2cccn(C(C)C)c2=O)nc2c(C(=O)N[C@@H]3CC[C@H]3O)cnn12 [I-981] | – | – | – | – | – | A (percent inhibition at 10 μM lower than 50) | A (percent inhibition at 10 μM lower than 50)
CNc1cc(Nc2cccn([C@@H]3CCC[C@@H](O)C3)c2=O)nc2c(C(=O)N[C@@H]3C[C@@H]3F)cnn12 [I-983] | – | – | – | – | – | A (percent inhibition at 10 μM lower than 50) | A (percent inhibition at 10 μM lower than 50)
CNc1cc(Nc2cccn([C@@H]3CCC[C@H](OC)C3)c2=O)nc2c(C(=O)N[C@@H]3CC[C@H]3O)cnn12 [I-994] | – | – | – | – | – | A (percent inhibition at 10 μM lower than 50) | A (percent inhibition at 10 μM lower than 50)
CNc1cc(Nc2cccn([C@H]3CCC[C@H](OC)C3)c2=O)nc2c(C(=O)NCC3(CO)CC3)cnn12 [I-1086] | – | – | – | – | – | A (percent inhibition at 10 μM lower than 50) | A (percent inhibition at 10 μM lower than 50)
CNc1cc(Nc2cccn([C@H]3C[C@@H]3F)c2=O)nc2c(C(=O)NCC3(CO)CC3)cnn12 [I-1121, 5-((1-((1S,2S)-2-fluorocyclopropyl)-2-oxo-1,2-dihydropyridin-3-yl)amino)-N-((1-(hydroxymethyl)cyclopropyl)methyl)-7-(methylamino)pyrazolo[1,5-a]pyrimidine-3-carboxamide] | – | – | – | – | – | A (percent inhibition at 10 μM lower than 50) | A (percent inhibition at 10 μM lower than 50)

More lines, main results first:

inhibition at 10 µM (JAK2 kinase domain (JH1); 10 μM compound, 10 μM ATP) [%] | Kd [1] [pM] | inhibition at 10 µM (Tyk2 kinase domain (DH1); 10 μM compound, 10 μM ATP) [%] | inhibition at 10 µM (JAK2 kinase domain (JH1); compound at 10 μM, ATP 10 μM) [%] | inhibition at 10 µM (Tyk2 kinase domain (DH1); compound at 10 μM, ATP 10 μM) [%] | Compound | JAK2 JH1% Inhibition @ 10 μM (JAK2 kinase domain (JH1); 10 μM compound, 10 μM ATP) | Tyk2 JH1% Inhibition @ 10 μM (Tyk2 kinase domain (DH1); 10 μM compound, 10 μM ATP)
< 50 | < 200 | < 50 | – | – | CNc1cc(Nc2cccn([C@H]3C[C@@H]3F)c2=O)nc2c(C(=O)N[C@H]3CC[C@H]3O)cnn12 (mixture of isomers) [I-1090, 5-((1-((1S,2S)-2-fluorocyclopropyl)-2-oxo-1,2-dihydropyridin-3-yl)amino)-N-(2-hydroxycyclobutyl)-7-(methylamino)pyrazolo[1,5-a]pyrimidine-3-carboxamide] | – | –
– | 200 to 1000 | – | < 50 | < 50 | [2H]C([2H])([2H])Oc1ncccc1Nc1cc(NC)n2ncc(C(=O)N[C@@H]3CC[C@@H]3O)c2n1 (stereo in doubt) [I-400, N-((1R,2S)-2-hydroxycyclobutyl)-5-((2-(methoxy-d3)pyridin-3-yl)amino)-7-(methylamino) pyrazolo[1,5-a]pyrimidine-3-carboxamide] | – | –
– | < 200 | – | < 50 | < 50 | CNc1cc(Nc2cccnc2OC2CC2)nc2c(C(=O)N[C@@H]3CCC[C@H]3O)cnn12 (stereo in doubt) [I-424, 5-((2-cyclopropoxypyridin-3-yl)amino)-N-(2-hydroxycyclopentyl)-7-(methylamino)pyrazolo[1,5-a]pyrimidine-3-carboxamide] | – | –
– | < 200 | – | < 50 | < 50 | CNc1cc(Nc2cccnc2OC)nc2c(C(=O)N[C@@H]3CCC[C@@H](O)C3)cnn12 (stereo in doubt) [I-459, N-(3-hydroxycyclohexyl)-5-((2-methoxypyridin-3-yl)amino)-7-(methylamino)pyrazolo[1,5-a]pyrimidine-3-carboxamide] | – | –
– | < 200 | – | < 50 | < 50 | CNc1cc(Nc2cccnc2OC2CC2)nc2c(C(=O)N[C@H]3CC[C@H](O)C3)cnn12 (stereo in doubt) [I-461, 5-((2-cyclopropoxypyridin-3-yl)amino)-N-(3-hydroxycyclopentyl)-7-(methylamino)pyrazolo[1,5-a]pyrimidine-3-carboxamide] | – | –
– | 200 to 1000 | – | 50 to 70 | < 50 | CNc1cc(Nc2cccc(C3CCCCO3)n2)nc2c(C(=O)NC3CC3)cnn12 (stereo in doubt) [I-463, (R)—N-cyclopropyl-7-(methylamino)-5-((6-(tetrahydro-2H-pyran-2-yl)pyridin-2-yl)amino) pyrazolo[1,5-a]pyrimidine-3-carboxamide] | – | –
– | 200 to 1000 | – | < 50 | < 50 | CNc1cc(Nc2cccc(C3CCCCO3)n2)nc2c(C(=O)NC3CC3)cnn12 (stereo in doubt) [I-464, (S)—N-cyclopropyl-7-(methylamino)-5-((6-(tetrahydro-2H-pyran-2-yl)pyridin-2-yl)amino) pyrazolo[1,5-a]pyrimidine-3-carboxamide] | – | –
– | 200 to 1000 | – | < 50 | < 50 | CNc1cc(Nc2cccn([C@H]3CCCOC3)c2=O)nc2c(C(=O)N[C@H]3CC[C@H](O)C3)cnn12 (stereo in doubt) [I-701, N-(3-hydroxycyclopentyl)-7-(methylamino)-5-((2-oxo-1-((R)-tetrahydro 2H-pyran-3-yl)-1,2-dihydropyridin-3-yl)amino)pyrazolo[1,5-a]pyrimidine-3-carboxamide] | – | –
< 50 | – | < 50 | – | – | CNc1cc(Nc2cccc(N3CCCC3=O)n2)nc2c(C(=O)N[C@@H]3CC[C@@H]3O)cnn12 [I-970] | – | –
< 50 | – | < 50 | – | – | CNc1cc(Nc2cccn([C@H]3CC[C@@H]3OC)c2=O)nc2c(C(=O)N[C@@H]3C[C@@H]3F)cnn12 [I-1021] | – | –
